In patent US20200060276A1, “THIAZOLE COMPOUND AND HERBICIDE” (OAT Agrio Co., Ltd., priority 2017, published 2020):

Assays:
Type in all cases: in vivo
[1] = system: Echinochloa crus-galli (L.) P. Beauv. var. formosensis Ohwi; assay: Test for Herbicidal Effect in Flooding Treatment (#1), ECHDG; settings: flooding treatment at seeding, dose 2 kg/ha, visual observation on day 21
In short: (§1)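 Sieved soil in cups was flooded and left 24 h before weed seeds were sown. Compounds in acetone, diluted with Tween 80-containing water, were dropped over the whole surface at 2 kg/ha. After 21 days in a glasshouse, growth inhibition was scored visually from 0 (<10%) to 5 (≥90% or complete withering).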

Cyperus microiria = assay: Test for Herbicidal Effect in Flooding Treatment (#1), CYMIC; settings: flooding treatment at seeding, dose 2 kg/ha, visual observation on day 21
Procedure: (#1) Test for Herbicidal Effect in Flooding Treatment: Styrol cups each having an opening diameter of 8 cm (about 52 cm^2) were respectively filled with soil (45 ml) which had been passed through a sieve (2 mm). Water (about 115 ml) was mixed with the soil such that the soil was flooded. After the soil stood still for 24 hours, Monochoria vaginalis, Echinochloa crus-galli (L.) P. Beauv. var. formosensis Ohwi, Cyperus difformis (umbrella sedge), and Scirpus juncoides were seeded. Each of the compounds of the present invention was dissolved in acetone, and the obtained product was then diluted with water containing Tween 80®. Each of the resultant chemical solutions was dropped on the entire surface of an associated one of treatment sections, so that each section was treated with 1 ml of the respective chemical solution (a dose of 2 kg/ha). After the treatment, the plants were grown in a glasshouse. On day 21, a survey was conducted on the herbicidal activity by visual observation, and evaluation was made according to the following criteria. 0: Growth inhibition effect is less than 10%. 1: Growth inhibition effect is equal to or greater than 10%, and less than 30%. 2; Growth inhibition effect is equal to or greater than 30%, and less than 50%. 3: Growth inhibition effect equal to or greater than 50%, and less than 70%. 4: Growth inhibition effect is equal to or greater than 70%, and less than 90%. 5: Growth inhibition effect is equal to or greater than 90%, or complete withering is achieved. ECHDG=Echinochloa crus-galli (L.) P. Beauv. var. formosensis Ohwi, MONVA=Monochoria vaginalis, SCIJU=Scirpus juncoides, CYMIC=Cyperus microiria.

Scirpus juncoides = assay: Test for Herbicidal Effect in Flooding Treatment (#1), SCIJU; settings: flooding treatment at seeding, dose 2 kg/ha, visual observation on day 21
In short: as §1

[2] = system: Echinochloa crus-galli (L.) P. Beauv. var. formosensis Ohwi; assay: Test for Herbicidal Effect in Flooding Treatment (#2), ECHDG at 2-2.5 leaf stage; settings: for ECHDG (2-2.5L) #2 herbicidal effect (growth inhibition grade): flooding treatment at 2-2.5 leaf stage, dose 0.2 kg/ha, visual observation on day 21; for inhibition at 200 g/ha: Echinochloa crus-galli, 504 h, flooding treatment (#2), ECHDG at 2-2.5 leaf stage, dose of 0.2 kg/ha, day 21, visual observation, read-out: growth inhibition effect
In short: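 Scoring is a visual 0–5 scale of growth inhibition (0 below 10%, 5 at 90% or more or full withering), taken 21 days after treatment in a glasshouse. Dose was 0.2 kg/ha, applied as acetone/Tween 80 aqueous solution onto flooded soil once seedlings reached the 2–2.5 leaf stage.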

Compound: COc1cc(F)ccc1CS(=O)(=O)c1ncc(Cl)s1 [Compound 1C-3]
- ECHDG #1 herbicidal effect (growth inhibition grade) [1]: 5 (Growth inhibition effect is equal to or greater than 90%, or complete withering is achieved)
- CYMIC #1 herbicidal effect (growth inhibition grade) (Cyperus microiria): 5 (Growth inhibition effect is equal to or greater than 90%, or complete withering is achieved)
- SCIJU #1 herbicidal effect (growth inhibition grade) (Scirpus juncoides): 5 (Growth inhibition effect is equal to or greater than 90%, or complete withering is achieved)
- ECHDG (2-2.5L) #2 herbicidal effect (growth inhibition grade) [2]: 4 (Growth inhibition effect is equal to or greater than 70%, and less than 90%)

Compound: COc1cc(Cl)ccc1CS(=O)(=O)c1ncc(Cl)s1 [Compound 1C-4]
- ECHDG #1 herbicidal effect (growth inhibition grade) [1]: 5 (Growth inhibition effect is equal to or greater than 90%, or complete withering is achieved)
- CYMIC #1 herbicidal effect (growth inhibition grade) (Cyperus microiria): 5 (Growth inhibition effect is equal to or greater than 90%, or complete withering is achieved)
- SCIJU #1 herbicidal effect (growth inhibition grade) (Scirpus juncoides): 5 (Growth inhibition effect is equal to or greater than 90%, or complete withering is achieved)
- ECHDG (2-2.5L) #2 herbicidal effect (growth inhibition grade) [2]: 5 (Growth inhibition effect is equal to or greater than 90%, or complete withering is achieved)

Compound: CCOc1c(Cl)cccc1CS(=O)(=O)c1ncc(Cl)s1 [Compound 1C-10]
- ECHDG #1 herbicidal effect (growth inhibition grade) [1]: 5 (Growth inhibition effect is equal to or greater than 90%, or complete withering is achieved)
- CYMIC #1 herbicidal effect (growth inhibition grade) (Cyperus microiria): 5 (Growth inhibition effect is equal to or greater than 90%, or complete withering is achieved)
- SCIJU #1 herbicidal effect (growth inhibition grade) (Scirpus juncoides): 5 (Growth inhibition effect is equal to or greater than 90%, or complete withering is achieved)
- ECHDG (2-2.5L) #2 herbicidal effect (growth inhibition grade) [2]: 5 (Growth inhibition effect is equal to or greater than 90%, or complete withering is achieved)

Compound: CCOc1cc(F)ccc1CS(=O)(=O)c1ncc(Cl)s1 [Compound 1C-12]
- ECHDG #1 herbicidal effect (growth inhibition grade) [1]: 5 (Growth inhibition effect is equal to or greater than 90%, or complete withering is achieved)
- CYMIC #1 herbicidal effect (growth inhibition grade) (Cyperus microiria): 5 (Growth inhibition effect is equal to or greater than 90%, or complete withering is achieved)
- SCIJU #1 herbicidal effect (growth inhibition grade) (Scirpus juncoides): 5 (Growth inhibition effect is equal to or greater than 90%, or complete withering is achieved)
- ECHDG (2-2.5L) #2 herbicidal effect (growth inhibition grade) [2]: 4 (Growth inhibition effect is equal to or greater than 70%, and less than 90%)

Compound: CCOc1cc(C)ccc1CS(=O)(=O)c1ncc(Cl)s1 [Compound 1C-13]
- ECHDG #1 herbicidal effect (growth inhibition grade) [1]: 5 (Growth inhibition effect is equal to or greater than 90%, or complete withering is achieved)
- CYMIC #1 herbicidal effect (growth inhibition grade) (Cyperus microiria): 5 (Growth inhibition effect is equal to or greater than 90%, or complete withering is achieved)
- SCIJU #1 herbicidal effect (growth inhibition grade) (Scirpus juncoides): 5 (Growth inhibition effect is equal to or greater than 90%, or complete withering is achieved)
- ECHDG (2-2.5L) #2 herbicidal effect (growth inhibition grade) [2]: 5 (Growth inhibition effect is equal to or greater than 90%, or complete withering is achieved)

Compound: CCOc1cc(C(F)(F)F)ccc1CS(=O)(=O)c1ncc(Cl)s1 [Compound 1C-14]
- ECHDG #1 herbicidal effect (growth inhibition grade) [1]: 5 (Growth inhibition effect is equal to or greater than 90%, or complete withering is achieved)
- CYMIC #1 herbicidal effect (growth inhibition grade) (Cyperus microiria): 5 (Growth inhibition effect is equal to or greater than 90%, or complete withering is achieved)
- SCIJU #1 herbicidal effect (growth inhibition grade) (Scirpus juncoides): 5 (Growth inhibition effect is equal to or greater than 90%, or complete withering is achieved)
- ECHDG (2-2.5L) #2 herbicidal effect (growth inhibition grade) [2]: 4 (Growth inhibition effect is equal to or greater than 70%, and less than 90%)

Compound: CCOc1ccc(Cl)cc1CS(=O)(=O)c1ncc(Cl)s1 [Compound 1C-16]
- ECHDG #1 herbicidal effect (growth inhibition grade) [1]: 5 (Growth inhibition effect is equal to or greater than 90%, or complete withering is achieved)
- CYMIC #1 herbicidal effect (growth inhibition grade) (Cyperus microiria): 5 (Growth inhibition effect is equal to or greater than 90%, or complete withering is achieved)
- SCIJU #1 herbicidal effect (growth inhibition grade) (Scirpus juncoides): 5 (Growth inhibition effect is equal to or greater than 90%, or complete withering is achieved)
- inhibition at 200 g/ha [2]: ≥ 90%
- ECHDG (2-2.5L) #2 herbicidal effect (growth inhibition grade) [2]: 5 (Growth inhibition effect is equal to or greater than 90%, or complete withering is achieved)

Compound: CCOc1ccc(Br)cc1CS(=O)(=O)c1ncc(Cl)s1 [Compound 1C-17]
- ECHDG #1 herbicidal effect (growth inhibition grade) [1]: 5 (Growth inhibition effect is equal to or greater than 90%, or complete withering is achieved)
- CYMIC #1 herbicidal effect (growth inhibition grade) (Cyperus microiria): 5 (Growth inhibition effect is equal to or greater than 90%, or complete withering is achieved)
- SCIJU #1 herbicidal effect (growth inhibition grade) (Scirpus juncoides): 5 (Growth inhibition effect is equal to or greater than 90%, or complete withering is achieved)
- ECHDG (2-2.5L) #2 herbicidal effect (growth inhibition grade) [2]: 5 (Growth inhibition effect is equal to or greater than 90%, or complete withering is achieved)

Compound: CCOc1ccc(C)cc1CS(=O)(=O)c1ncc(Cl)s1 [Compound 1C-18]
- ECHDG #1 herbicidal effect (growth inhibition grade) [1]: 5 (Growth inhibition effect is equal to or greater than 90%, or complete withering is achieved)
- CYMIC #1 herbicidal effect (growth inhibition grade) (Cyperus microiria): 5 (Growth inhibition effect is equal to or greater than 90%, or complete withering is achieved)
- SCIJU #1 herbicidal effect (growth inhibition grade) (Scirpus juncoides): 5 (Growth inhibition effect is equal to or greater than 90%, or complete withering is achieved)
- ECHDG (2-2.5L) #2 herbicidal effect (growth inhibition grade) [2]: 5 (Growth inhibition effect is equal to or greater than 90%, or complete withering is achieved)

Compound: CCOc1cccc(Cl)c1CS(=O)(=O)c1ncc(Cl)s1 [Compound 1C-20]
- ECHDG #1 herbicidal effect (growth inhibition grade) [1]: 5 (Growth inhibition effect is equal to or greater than 90%, or complete withering is achieved)
- CYMIC #1 herbicidal effect (growth inhibition grade) (Cyperus microiria): 5 (Growth inhibition effect is equal to or greater than 90%, or complete withering is achieved)
- SCIJU #1 herbicidal effect (growth inhibition grade) (Scirpus juncoides): 5 (Growth inhibition effect is equal to or greater than 90%, or complete withering is achieved)
- inhibition at 200 g/ha [2]: ≥ 90%
- ECHDG (2-2.5L) #2 herbicidal effect (growth inhibition grade) [2]: 5 (Growth inhibition effect is equal to or greater than 90%, or complete withering is achieved)

Compound: CCOc1c(Br)cc(Cl)cc1CS(=O)(=O)c1ncc(Cl)s1 [Compound 1C-24]
- ECHDG #1 herbicidal effect (growth inhibition grade) [1]: 5 (Growth inhibition effect is equal to or greater than 90%, or complete withering is achieved)
- CYMIC #1 herbicidal effect (growth inhibition grade) (Cyperus microiria): 5 (Growth inhibition effect is equal to or greater than 90%, or complete withering is achieved)
- SCIJU #1 herbicidal effect (growth inhibition grade) (Scirpus juncoides): 5 (Growth inhibition effect is equal to or greater than 90%, or complete withering is achieved)
- ECHDG (2-2.5L) #2 herbicidal effect (growth inhibition grade) [2]: 5 (Growth inhibition effect is equal to or greater than 90%, or complete withering is achieved)

Compound: CCOc1c(Cl)cc(Cl)c(Cl)c1CS(=O)(=O)c1ncc(Cl)s1 [Compound 1C-34]
- ECHDG #1 herbicidal effect (growth inhibition grade) [1]: 5 (Growth inhibition effect is equal to or greater than 90%, or complete withering is achieved)
- CYMIC #1 herbicidal effect (growth inhibition grade) (Cyperus microiria): 5 (Growth inhibition effect is equal to or greater than 90%, or complete withering is achieved)
- SCIJU #1 herbicidal effect (growth inhibition grade) (Scirpus juncoides): 5 (Growth inhibition effect is equal to or greater than 90%, or complete withering is achieved)
- ECHDG (2-2.5L) #2 herbicidal effect (growth inhibition grade) [2]: 4 (Growth inhibition effect is equal to or greater than 70%, and less than 90%)

Compound: COc1cccc(OC)c1CS(=O)(=O)c1ncc(Cl)s1 [Compound 1C-127]
- ECHDG #1 herbicidal effect (growth inhibition grade) [1]: 5 (Growth inhibition effect is equal to or greater than 90%, or complete withering is achieved)
- CYMIC #1 herbicidal effect (growth inhibition grade) (Cyperus microiria): 5 (Growth inhibition effect is equal to or greater than 90%, or complete withering is achieved)
- SCIJU #1 herbicidal effect (growth inhibition grade) (Scirpus juncoides): 5 (Growth inhibition effect is equal to or greater than 90%, or complete withering is achieved)
